Source: PMC9090415, “Discovery of small molecule inhibitors of Plasmodium falciparum apicoplast DNA polymerase” (Journal of Enzyme Inhibition and Medicinal Chemistry, 2022)
Read-outs that look alike come from different tables or passages of the source.

Legend:
[1] = system: chloroquine resistant P. falciparum parasites (strain Dd2); assay: Parasite growth inhibition assay in human red blood cells (flow cytometry, acridine orange); type: cell-based; settings: Plasmodium falciparum, Erythrocyte
Protocol: The chloroquine resistant P. falciparum parasites (strain Dd2) were cultured in de-identified, IRB-exempt human red blood cells (RBCs) obtained from the American Red Cross and parasite cultures were maintained as described. Parasitaemia (percentage of total RBCs infected) was measured by flow cytometry on an Attune NxT (ThermoFisher) by nucleic-acid staining of cultured RBCs with phosphate-buffered saline (PBS) containing 0.8 µg ml^−1 acridine orange. We began by determining percent growth inhibition at single compound dose (20 µM) for the 102 non-toxic compounds. […] The experiments were initiated with a starting parasitaemia of ∼1% and parasitaemia was measured 72 and 96 h post compound addition. Growth was normalised to parasite cultures with carrier only (DMSO).
We tested the ability of the 102 compounds to kill P. falciparum parasites cultured in human red blood cells. Due to the number of compounds, we used a single inhibitor concentration of 20 µM and performed experiments in triplicate. […] These compounds were then tested in a dose-response format against chloroquine resistant P. falciparum parasites (Dd2) and the resulting data were fit to a sigmoidal growth inhibition curve to determine EC50 values (Figure 5, Table 2). […] Finally, to determine if the compounds were killing the parasites solely via apicoplast disruption, the dose-response curves were also performed with 1 mM isopentylpyrophosphate (IPP) in the growth media (Table 2). […] Very little is known regarding mitochondrial DNA replication in P. falciparum; however, signal sequence identification algorithms have predicted that the other bacterial A-family DNA polymerase residing in P. falciparum is targeted to the mitochondria (PF3D7_0625300)[29]. […] We are currently in the process of cloning and expressing this putative mitochondrial DNA polymerase to determine the effect of these compounds on its activity.

[2] = target: T1, P. berghei apicoplast DNA polymerase (Pb-apPOL) (Plasmodium berghei, UniProt A0A509ALK1); assay: In vitro DNA polymerase inhibition assay, Pb-apPOL; type: biochemical; settings: Table 2
T1 sequence (A0A509ALK1 1182-1809): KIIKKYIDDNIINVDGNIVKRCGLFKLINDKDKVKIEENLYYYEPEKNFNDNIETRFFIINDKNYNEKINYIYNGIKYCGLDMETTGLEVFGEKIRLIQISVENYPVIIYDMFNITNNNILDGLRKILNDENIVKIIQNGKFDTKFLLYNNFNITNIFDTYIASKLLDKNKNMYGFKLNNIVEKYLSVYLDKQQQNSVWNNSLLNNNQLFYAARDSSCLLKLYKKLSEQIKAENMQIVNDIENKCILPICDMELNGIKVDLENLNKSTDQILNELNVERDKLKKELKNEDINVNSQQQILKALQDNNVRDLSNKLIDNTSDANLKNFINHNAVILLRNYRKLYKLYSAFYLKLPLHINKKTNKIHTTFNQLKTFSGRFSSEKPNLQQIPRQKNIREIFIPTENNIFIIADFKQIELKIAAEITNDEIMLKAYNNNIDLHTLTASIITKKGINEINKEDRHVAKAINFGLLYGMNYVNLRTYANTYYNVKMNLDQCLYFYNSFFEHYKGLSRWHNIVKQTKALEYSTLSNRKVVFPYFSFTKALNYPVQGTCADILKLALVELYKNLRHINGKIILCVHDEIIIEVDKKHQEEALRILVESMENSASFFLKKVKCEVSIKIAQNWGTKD
Protocol: Codon-optimized, exonuclease-deficient Pf-apPOL was overexpressed in E. coli BL21 (DE3) and purified as described. The protein was dialysed against two, 1-liter changes of 20 mM Tris-HCl (pH 8.0), 400 mM NaCl, and 20% glycerol. Plasmodium bergei and Babesia bovis apPOLs (Pb-apPOL and Bb-apPOL, respectively) were codon-optimized, expressed, and purified as for Pf-apPOL[15]. Bacteriophage T4 DNA polymerase was purified as described. The DNA oligonucleotides used to make the high-throughput substrate were obtained from Integrated DNA Technologies. Deoxynucleotides were purchased from Strategene. All other materials came from Fisher Scientific.
The HT assay employs a molecular beacon, a stem-loop DNA template with a Cy3 dye and the Black Hole Quencher on the 3′ and 5′ ends of the DNA, respectively. Pf-apPOL concentration is based on a calculated absorptivity of ε280 = 56750 M^−1 cm^−1. Reactions were carried out at 25 °C, using Corning 3575 […] (well-volume, 20 µL). Assays testing for compound inhibition composed of reaction buffer (pH 7.9 in 50 mM potassium acetate, 20 mM Tris-acetate and 10 mM magnesium acetate), Pf-apPOL (20 nM), DNA substrate (20 nM), dNTPs (6 µM), and compound (10 µM in DMSO). The DNA and nucleotide substrates (dNTPs) were at concentrations of 20 nM and 6 µM, respectively, in the assay. Pf-apPOL was incubated in the reaction buffer with dNTPs and the compound of interest (10 µM, in the assay) at 25 °C for 10 min. The DNA substrate was then added and the reaction was allowed to proceed for 90 min at 25 °C.
In the above, Min is the average of fluorescence emission of the negative controls (substrate only), Max the average fluorescence emission from the positive controls (enzyme + substrate), and Test the emission from the assays in the presence of compounds (enzyme + compound + substrates). Dose-response confirmation assays were performed under similar conditions as the primary screen, but monitoring fluorescence at 10, 90, and 180 min. Tested concentrations of compounds were 2.5, 10, 20, 40, and 80 µM. The IC50 of each compound was determined using Equation (2): (2) […] Vmax/(1+ (I/IC50)^n)
We tested the ability of the 102 compounds to kill P. falciparum parasites cultured in human red blood cells. Due to the number of compounds, we used a single inhibitor concentration of 20 µM and performed experiments in triplicate. These single-dose assays identified 9 compounds that inhibited parasite growth by more than 50%. These compounds were then tested in a dose-response format against chloroquine resistant P. falciparum parasites (Dd2) and the resulting data were fit to a sigmoidal growth inhibition curve to determine EC50 values (Figure 5, Table 2). […] Inhibition of Pb-apPOL is a desired feature because it is likely that future in vivo studies will be performed in the mouse model for Malaria. […] The in vitro polymerase assays identified 5 compounds that were potent inhibitors of all three apicoplast polymerases and a single compound that inhibited Pf-apPOL and Bb-apPOL but not Pb-apPOL (Table 2). Finally, to determine if the compounds were killing the parasites solely via apicoplast disruption, the dose-response curves were also performed with 1 mM isopentylpyrophosphate (IPP) in the growth media (Table 2). […] At this time, it is unclear what the non-apicoplast target(s) may be. One intriguing possibility is that these compounds may be targeting both the apicoplast and the mitochondrial DNA polymerases. […]

[3] = Dd2 parasites in human RBCs, dose-response, no IPP, read-out: EC50
[4] = Dd2 parasites, 1 mM isopentylpyrophosphate (IPP) in the growth media, read-out: EC50 + IPP

Row | SMILES | EC50 [1, 3] [µM] | EC50 [1, 4] [µM] | IC50 [2] [µM]
1 | O=C(O)c1ccc(-c2nc3cc(-c4ccc5nc(-c6ccc(C(=O)O)cc6)[nH]c5c4)ccc3[nH]2)cc1 [Molecule 1] | 8.6 ± 0.4 | 9.3 ± 0.5 | 7.1 ± 0.6
2 | COc1ccc(CNC(=O)Cn2nc3c(c2NC(=O)Cc2cccs2)CSC3)cc1 [Molecule 55] | 3.5 ± 0.3 | 4.3 ± 0.2 | 51.9 ± 3.5
3 | CCOc1nc2cccc(C(=O)OC(C)OC(=O)OC3CCCCC3)c2n1Cc1ccc(-c2ccccc2-c2nnn[nH]2)cc1 (stereo not drawn) [Molecule 94] | 4.6 ± 0.2 | 3.7 ± 0.5 | 13.9 ± 1.6
4 | OC(C#Cc1ccccc1)c1ccco1 (stereo not drawn) [Molecule 95] | 7.5 ± 0.5 | 7.4 ± 0.4 | 8.6 ± 0.7
